Source: patent US20230141603A1, “BENZODIAZEPINE DERIVATIVES AS GABA A GAMMA1 PAM” (Hoffmann-La Roche Inc., priority 2021, published 2023)

Experiments:
[1] = target: T1, h-GABAA α1β3γ2 (Homo sapiens, UniProt P14867+P18507); test: Radioligand binding assay, [3H]Flumazenil competition, HEK293F membranes; details: for γ2/γ1 Selectivity Ratio: Ki α1β3γ2 (nM)/Ki α2β2γ1 (nM); for LogSel: Log[Ki α1β3γ2 (nM)/Ki α2β2γ1 (nM)]
T1 construct: expressed in transfected cells; host or cells: HEK293F cells, membranes
Procedure, shortened: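 [3H]Flumazenil competition binding on membranes from HEK293F cells transiently expressing human α1β3γ2 receptors. Incubation to equilibrium for 1 h at 4 °C, then filtration and scintillation counting. Ki is the mean of two determinations.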

[2] = target: T2, h-GABAA α2β2γ1 (Homo sapiens, UniProt P47869+Q8N1C3); test: Two-electrode voltage clamp electrophysiology in Xenopus oocytes, modulation of GABA EC20 current; type: cell-based; set-up: host or cells: Xenopus laevis oocytes, RNA micro-injection; details: Table 2; for Efficacy (GABA)%: % modulation of GABA EC20 = 100*(Fold increase−1), compound at approx. 30-fold Ki; for Fold increase h-GABA-A α2β2γ1 oocyte @ 30-fold Ki: compound at approx. 30-fold its Ki α2β2γ1, GABA EC20, Xenopus oocytes
T2 sequence (P47869 29-451): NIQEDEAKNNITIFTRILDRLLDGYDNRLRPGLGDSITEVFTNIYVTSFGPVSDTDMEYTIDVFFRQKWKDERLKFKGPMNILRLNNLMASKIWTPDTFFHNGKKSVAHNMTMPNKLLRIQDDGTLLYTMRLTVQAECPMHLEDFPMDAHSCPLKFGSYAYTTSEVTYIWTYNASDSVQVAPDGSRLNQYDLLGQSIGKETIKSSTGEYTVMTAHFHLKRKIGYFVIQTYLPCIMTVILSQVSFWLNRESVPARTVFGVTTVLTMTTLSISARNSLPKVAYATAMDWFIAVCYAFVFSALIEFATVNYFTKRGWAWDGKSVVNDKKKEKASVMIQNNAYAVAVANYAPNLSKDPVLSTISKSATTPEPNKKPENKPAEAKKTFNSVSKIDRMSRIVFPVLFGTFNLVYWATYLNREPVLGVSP
T2 sequence (P47870 25-512 partner limits assumed): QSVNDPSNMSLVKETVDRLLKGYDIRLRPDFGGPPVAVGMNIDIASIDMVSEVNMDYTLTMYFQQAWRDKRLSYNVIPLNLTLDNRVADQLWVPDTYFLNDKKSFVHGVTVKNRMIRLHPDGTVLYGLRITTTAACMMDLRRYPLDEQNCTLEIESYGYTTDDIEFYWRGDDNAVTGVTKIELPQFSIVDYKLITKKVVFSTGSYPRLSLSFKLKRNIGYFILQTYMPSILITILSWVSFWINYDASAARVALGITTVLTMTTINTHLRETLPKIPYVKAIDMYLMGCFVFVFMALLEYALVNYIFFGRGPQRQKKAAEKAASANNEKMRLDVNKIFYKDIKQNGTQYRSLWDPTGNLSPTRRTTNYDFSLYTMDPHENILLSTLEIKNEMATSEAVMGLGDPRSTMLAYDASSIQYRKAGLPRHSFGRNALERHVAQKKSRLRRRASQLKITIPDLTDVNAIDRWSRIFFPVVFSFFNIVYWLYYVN
T2 sequence (Q8N1C3 36-465): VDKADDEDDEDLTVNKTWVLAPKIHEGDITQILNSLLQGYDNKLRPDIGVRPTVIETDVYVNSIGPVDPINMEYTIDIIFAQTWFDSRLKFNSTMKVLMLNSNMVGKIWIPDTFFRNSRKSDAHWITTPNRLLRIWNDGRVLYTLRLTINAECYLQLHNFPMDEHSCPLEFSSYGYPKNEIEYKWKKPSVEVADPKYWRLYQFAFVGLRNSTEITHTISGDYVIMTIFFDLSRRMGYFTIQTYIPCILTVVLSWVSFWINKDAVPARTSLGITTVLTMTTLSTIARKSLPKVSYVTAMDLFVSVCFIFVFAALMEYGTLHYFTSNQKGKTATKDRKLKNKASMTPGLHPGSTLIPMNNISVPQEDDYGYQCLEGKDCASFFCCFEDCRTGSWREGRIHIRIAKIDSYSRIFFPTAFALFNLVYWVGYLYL
Procedure, shortened: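 Oocytes injected with receptor subunit mRNA were recorded 3–5 days later by two-electrode voltage clamp at −80 mV, room temperature, pH 7.4. Compound was applied during a second GABA EC20 pulse, with at least 3 oocytes per concentration. Efficacy is the ratio-trace extremum, expressed as % modulation of GABA EC20.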

Structure (SMILES) | Ki [1] | γ2/γ1 Selectivity Ratio ([1]; Table 1) | LogSel ([1]; Table 1) | Efficacy (GABA)% [2] | Fold increase h-GABA-A α2β2γ1 oocyte @ 30-fold Ki [2] | γ2/γ1 Selectivity Ratio ([1]; Table 3) | LogSel ([1]; Table 3)
COc1ccc2c(c1Cl)C(c1c(F)cccc1F)=NCc1nnc(-c3cccnc3)n1-2 [Example 62, 7-chloro-6-(2,6-difluorophenyl)-8-methoxy-1-(3-pyridyl)-4H-[1,2,4]triazolo[4,3-a][1,4]benzodiazepine] | 2150 nM | 38.9 | 1.59 | 63% | 1.63 | – | –
Cc1nnc2n1-c1ccc(Cl)c(Cl)c1C(c1ccccc1F)=NC2 [Example 4, 7,8-dichloro-6-(2-fluorophenyl)-1-methyl-4H-[1,2,4]triazolo[4,3-a][1,4]benzodiazepine] | 795 nM | 12.1 | 1.08 | 73% | 1.73 | – | –
Cc1nnc2n1-c1ccc(Br)c(Cl)c1C(c1c(F)cccc1F)=NC2 [Example 1, 8-bromo-7-chloro-6-(2,6-difluorophenyl)-1-methyl-4H-[1,2,4]triazolo[4,3-a][1,4]benzodiazepine] | 146 nM | 18.3 | 1.26 | 77% | 1.77 | 18.3 | 1.3
CC(F)(F)c1ccc2c(c1Cl)C(c1c(F)cccc1F)=NCc1nncn1-2 [Example 21, 7-chloro-8-(1,1-difluoroethyl)-6-(2,6-difluorophenyl)-4H-[1,2,4]triazolo[4,3-a][1,4]benzodiazepine] | 1790 nM | 34.5 | 1.54 | 100% | 2.00 | – | –
O=c1[nH]nc2n1-c1ccc(Br)c(Cl)c1C(c1c(F)cccc1F)=NC2 [Example 13, 8-bromo-7-chloro-6-(2,6-difluorophenyl)-2,4-dihydro-[1,2,4]triazolo[4,3-a][1,4]benzodiazepin-1-one] | 331 nM | 53.5 | 1.73 | 52% | 1.52 | – | –
Fc1cccnc1C1=NCc2nnc(-c3ccncn3)n2-c2ccc(Cl)c(Cl)c21 [Example 55, 7,8-dichloro-6-(3-fluoro-2-pyridyl)-1-pyrimidin-4-yl-4H-[1,2,4]triazolo[4,3-a][1,4]benzodiazepine] | 1720 nM | 92.9 | 1.97 | 59% | 1.59 | – | –
Cc1ccc2c(c1Cl)C(c1c(F)cccc1F)=NCc1n[nH]c(=O)n1-2 [Example 16, 7-chloro-6-(2,6-difluorophenyl)-8-methyl-2,4-dihydro-[1,2,4]triazolo[4,3-a][1,4]benzodiazepin-1-one] | 666 nM | 25.1 | 1.40 | 68% | 1.68 | – | –
Fc1cccnc1C1=NCc2nnc(-c3ccncn3)n2-c2ccc(C(F)(F)F)c(Cl)c21 [Example 69, 7-chloro-6-(3-fluoro-2-pyridyl)-1-pyrimidin-4-yl-8-(trifluoromethyl)-4H-[1,2,4]triazolo[4,3-a][1,4]benzodiazepine] | 10600 nM | 166.3 | 2.22 | 136% | 2.36 | – | –
Cc1nnc2n1-c1ccc(C3CC3)c(Cl)c1C(c1c(F)cccc1F)=NC2 [Example 6, 7-chloro-8-cyclopropyl-6-(2,6-difluorophenyl)-1-methyl-4H-[1,2,4]triazolo[4,3-a][1,4]benzodiazepine] | 965 nM | 10.3 | 1.01 | 106% | 2.06 | – | –
COc1nnc2n1-c1ccc(Cl)c(Cl)c1C(c1c(F)cccc1F)=NC2 [Example 90, 7,8-dichloro-6-(2,6-difluorophenyl)-1-methoxy-4H-[1,2,4]triazolo[4,3-a][1,4]benzodiazepine] | 305 nM | 52.8 | 1.72 | 65% | 1.65 | – | –
Cn1cc(-c2nnc3n2-c2ccc(Cl)c(Cl)c2C(c2c(F)cccc2F)=NC3)cn1 [Example 28, 7,8-dichloro-6-(2,6-difluorophenyl)-1-(1-methylpyrazol-4-yl)-4H-[1,2,4]triazolo[4,3-a][1,4]benzodiazepine] | 293 nM | 31.1 | 1.49 | 59% | 1.59 | – | –
Clc1cccnc1C1=NCc2nnc(-c3cccnn3)n2-c2ccc(Br)c(Cl)c21 [Example 47, 8-bromo-7-chloro-6-(3-chloro-2-pyridyl)-1-pyridazin-3-yl-4H-[1,2,4]triazolo[4,3-a][1,4]benzodiazepine] | 222 nM | 14.0 | 1.15 | 314% | 4.14 | – | –
Cc1ccc2c(c1Cl)C(c1c(F)cccc1F)=NCc1nnc(C)n1-2 [Example 20, 7-chloro-6-(2,6-difluorophenyl)-1,8-dimethyl-4H-[1,2,4]triazolo[4,3-a][1,4]benzodiazepine] | 289 nM | 12.2 | 1.09 | 57% | 1.57 | – | –
Cc1nnc2n1-c1ccc(Cl)c(Cl)c1C(c1c(F)cccc1F)=NC2 [Example 5, 7,8-dichloro-6-(2,6-difluorophenyl)-1-methyl-4H-[1,2,4]triazolo[4,3-a][1,4]benzodiazepine] | 137 nM | 20.8 | 1.32 | 57% | 1.57 | – | –
Cc1nnc2n1-c1ccc(C(C)(F)F)c(Cl)c1C(c1c(F)cccc1F)=NC2 [Example 22, 7-chloro-8-(1,1-difluoroethyl)-6-(2,6-difluorophenyl)-1-methyl-4H-[1,2,4]triazolo[4,3-a][1,4]benzodiazepine] | 2790 nM | 74.6 | 1.87 | 86% | 1.86 | – | –
Fc1cccc(F)c1C1=NCc2nncn2-c2ccc(Cl)c(Cl)c21 [Example 15, 7,8-dichloro-6-(2,6-difluorophenyl)-4H-[1,2,4]triazolo[4,3-a][1,4]benzodiazepine] | 249 nM | 28.7 | 1.46 | 60% | 1.60 | – | –
Cc1nnc2n1-c1ccc(C(F)F)c(Cl)c1C(c1c(F)cccc1F)=NC2 [Example 25, 7-chloro-8-(difluoromethyl)-6-(2,6-difluorophenyl)-1-methyl-4H-[1,2,4]triazolo[4,3-a][1,4]benzodiazepine] | 1190 nM | 24.2 | 1.38 | 84% | 1.84 | – | –
